Laboratory results reported in ChEMBL document CHEMBL3045396, “Easy Preparation of Methyl 7-epi-Jasmonate and Four Stereoisomers of Methyl Cucurbate, and Assessment of the Stereogenic Effect of Jasmonate on Phytohormonal Activities” (Biosci Biotechnol Biochem, 1999).
Calls of active or inactive are those of the source. No cut-off for these calls is given here.

Columns and labels:
[1] = test system: Lepidium sativum; test: Phytohormonal activity against Lepidium sativum assessed as inhibition of seed germination at 100 to 1000 uM after 2 days relative to control; assay type: functional, organism-based
[2] = test system: Oryza sativa; test: Phytohormonal activity against Oryza sativa (rice) seedlings assessed as growth inhibition of second leaf sheath at 1 to 300 uM after 5 days relative to control; assay type: functional, organism-based

SMILES | inhibition [1] | growth inhibition (GI) [2]
CC/C=C\C[C@H]1C(=O)CC[C@@H]1CC(=O)OC (racemic) | Active | Active
CC/C=C\C[C@H]1[C@@H](CC(=O)O)CC[C@@H]1O |  | inactive
CC/C=C\C[C@@H]1[C@@H](CC(=O)OC)CC[C@H]1O | inactive | inactive
CC/C=C\C[C@H]1C(=O)CC[C@@H]1CC(=O)O |  | Active
CC/C=C\C[C@@H]1C(=O)CC[C@@H]1CC(=O)OC | Active | Active
CC/C=C\C[C@H]1[C@@H](CC(=O)OC)CC[C@@H]1O | Active | Active
CC/C=C\C[C@@H]1[C@@H](CC(=O)OC)CC[C@@H]1O | inactive | inactive
CC/C=C\C[C@H]1[C@@H](CC(=O)OC)CC[C@H]1O | Active | Active
